According to patent publication US20190133122A1, “FUNGICIDAL OR BACTERICIDAL COMPOSITION AND METHOD FOR CONTROLLING DISEASE” (Nissan Chemical Corporation, priority 2016, published 2019):
Where a name gives a salt, the structure may show the parent alone. Read-outs that look alike come from different tables or passages of the source.

System: cucumber gray mold fungus (Botrytis cinerea)
Experiment: Preventive test against gray mold (sprayed cucumber cotyledon, cut leaf inoculated)
Format: in vivo
Description: Such an agent was diluted with water to a predetermined concentration to obtain a test solution. Then, cucumber (variety: Sagami-hanjiro) was planted in a plastic pot of 90 cm^3, and in the cotyledon stage, 5 ml of the obtained test solution, was sprayed by a spray gun and air-dried. Thereafter, the treated leaf was cut off and placed in a plastic container which filled approximately 0.5 cm in depth water. A suspension of conidia of cucumber gray mold fungus (Botrytis cinerea) and a dissolved PDA culture medium were mixed at a ratio of 1:1 (mass ratio), and the mixture was dropped to inoculate the treated leaf with 30 μl. After the inoculation, the plastic container was sealed and left at 20° C. for 3 days, the ratio of the formed lesion occupying the inoculated leaf was measured, and the preventive value (observed value) was calculated in accordance with the following calculation formula.
Preventive value=[1−(treated plot lesion area ratio/untreated plot lesion area ratio)]×100
Further, from the preventive value at each agent concentration, a theoretical value expected by treatment of the mixing (theoretical value) was calculated by using the Colby method (Colby S. R. 1967, Weeds 15, 20-22), in order to analyze synergy. The calculation method is as follows.
X: preventive value of A agent (test solution obtained from active ingredient A) at x concentration
Y: preventive value of B agent (test solution obtained from active ingredient B) at y concentration
E: theoretical value expected by treatment of the mixture of A agent and B agent.
In the observed value and the theoretical value, calculated as the above, the obtained result is analyzed to be synergy if the observed value is larger than the theoretical value, to be antagonism if the theoretical value is larger than the observed value, and to be an additive effect if the observed value and the theoretical value are the same.

[1] = 100 ppm, active ingredient B alone, cucumber leaf, 20° C., 3 days after inoculation
[2] = Botrytis cinerea, 72 h, 100 ppm, active ingredient B alone, cucumber leaf, 20° C., 3 days after inoculation, read-out: Preventive value
[3] = 1 ppm, active ingredient B alone, cucumber leaf, 20° C., 3 days after inoculation
[4] = Botrytis cinerea, 72 h, read-out: Preventive value
[5] = Botrytis cinerea, 72 h, 10 ppm, active ingredient B alone, cucumber leaf, 20° C., 3 days after inoculation, read-out: Preventive value
[6] = 10 ppm, active ingredient B alone, cucumber leaf, 20° C., 3 days after inoculation

Compound | Preventive value [1] | pest or weed control at 100 ppm [2] [%] | also measured
CO/C=C(/C(=O)OC)c1ccccc1CO/N=C(C)/C=C/c1ccc(Cl)cc1 [C22, enoxastrobin] | 85 |  | 
C=CCSC(=O)n1c(N)c(-c2ccccc2C)c(=O)n1C(C)C [Compound No. H50, fenpyrazamine] |  |  | Preventive value (5 ppm, active ingredient B alone, cucumber leaf, 20° C., 3 days after inoculation): 56
COCC(=O)N(c1c(C)cccc1C)[C@H](C)C(=O)OC [A05, metalaxyl-M] | 5 |  | 
CCCC1COC(Cn2cncn2)(c2ccc(Cl)cc2Cl)O1 (stereo not shown) [H30, propiconazole] |  | 38 | 
O=C(Nc1ccccc1-c1ccc(F)c(F)c1)c1nccnc1C(F)(F)F [Compound No. C50, pyraziflumid] |  |  | Preventive value [3]: 70
OCC1=C[C@H](N[C@H]2C[C@H](CO)[C@@H](O[C@@H]3O[C@H](CO)[C@@H](O)[C@H](O)[C@H]3O)[C@H](O)[C@H]2O)[C@H](O)[C@@H](O)[C@@H]1O [I01, validamycin] |  | 10 | 
S=C(S)NCCNC(=S)S [L35, zineb] |  |  | pest or weed control at 100 ppm [4]: 23%
Cc1ccc(-c2c(Cl)nc(C#N)n2S(=O)(=O)N(C)C)cc1 [C41, cyazofamid] |  | 10 | 
fosetyl-aluminium [M08] | 10 |  | 
Cc1cccc(-n2nnn(C)c2=O)c1COc1ccn(-c2ccc(Cl)cc2)n1 [C51, 1-(2-[([1-(4-chlorophenyl)-1H-pyrazol-3-yl]oxy)-methyl]-3-methylphenyl)-4-methyl-1,4-dihydro-5H-tetrazol-5-one] |  |  | pest or weed control at 100 ppm [4]: 48%
CON(C(=O)c1cn(C)nc1C(F)F)C(C)Cc1c(Cl)cc(Cl)cc1Cl (stereo not shown) [Compound No. C49, pydiflumetofen] |  |  | Preventive value [3]: 45
CC(C)(C)C(=O)C(Oc1ccc(Cl)cc1)n1cncn1 (stereo not shown) [H37, triadimefon] |  | 38 | 
CCC(C)(NC(=O)c1cc(Cl)c(C)c(Cl)c1)C(=O)CCl (stereo not shown) [B08, zoxamide] |  | 15 | 
C#CCOc1ccc(CCNC(=O)C(OCC#C)c2ccc(Cl)cc2)cc1OC (stereo not shown) [I08, mandipropamid] | 10 |  | 
COC(=O)Nc1nc2ccccc2[nH]1 [B02, carbendazim] |  |  | pest or weed control at 10 ppm [5]: 85%
Bacillus subtilis D747 strain [G13] | 28 |  | 
CCNC(=O)NC(=O)/C(C#N)=N/OC [M02, cymoxanil] |  | 13 | 
CCSS(=O)(=O)CC [M34, ethylicin] | 10 |  | 
Cn1c(=O)c2sc3c(=O)n(C)c(=O)c3sc2c1=O [M23, dipymetitrone] | 54 |  | 

Compound | Preventive value [1] | pest or weed control at 100 ppm [2] [%] | also measured
COC(=O)N(OC)c1ccccc1COc1nc(Cl)c(Cl)cc1Cl [C38, triclopyricarb] | 69 |  | 
C[C@H]1O[C@H](O[C@H]2[C@H](O)[C@@H](O)[C@@H](O)[C@H](O)[C@@H]2O)[C@@H](N)C[C@@H]1NC(=N)C(=O)O [D05, kasugamycin] | 28 |  | 
CNC(=O)/C(=N/OC)c1ccccc1CO/N=C(C)/C=C/c1c(Cl)cccc1Cl [C25, fenaminstrobin] |  |  | Preventive value [6]: 55
[Cl-].[Cu+2].[Cu+2].[OH-].[OH-].[OH-] [L08, copper oxychloride] | 5 |  | 
CCCOC(=O)NCCCN(C)C [G12, propamocarb hydrochloride] |  | 15 | 
Cc1nnc(Cl)c(-c2c(F)cccc2F)c1-c1ccccc1 [M44, 3-chloro-4-(2,6-difluorophenyl)-6-methyl-5-phenyl-pyridazine] |  |  | pest or weed control at 10 ppm [5]: 28%
[H]/N=C(/N)N[C@H]1[C@H](O)[C@@H](O)[C@H](O[C@@H]2O[C@@H](C)[C@](O)(C=O)[C@H]2O[C@@H]2O[C@@H](CO)[C@H](O)[C@@H](O)[C@@H]2NC)[C@@H](N/C(N)=N\[H])[C@@H]1O [D06, streptomycin] |  | 13 | 
Cc1cc(O)no1 [A10, hymexazol] |  | 10 | 
Cc1nc2c(F)c(F)ccc2cc1Oc1cccc(F)c1C(C)(C)O [M21, 2-(2-[(7,8-difluoro-2-methylquinolin-3-yl)oxy]-6-fluoro-phenyl)propan-2-ol] |  |  | pest or weed control at 1 ppm [4]: 65%
CN1OC(c2ccc(Cl)cc2)CC1(C)c1cccnc1 (stereo not shown) [H33, pyrisoxazole] | 9 |  | 
CN(C)C(=S)SSC(=S)N(C)C [L21, thiram] |  | 28 | 
CC(O)(Cn1cncn1)c1ccc(Oc2ccc(Cl)cc2)cc1C(F)(F)F (stereo not shown) [H51, mefentrifluconazole] |  |  | Preventive value [6]: 53
CC1(C)N=C(c2cnc3ccccc3c2)c2ccccc2C1(F)F [M20, quinofumelin] |  |  | Preventive value [6]: 60
COCC(=O)N(c1c(C)cccc1C)N1CCOC1=O [A07, oxadixyl] |  |  | pest or weed control at 100 ppm [4]: 10%
COc1ccc(C(=CC(=O)N2CCOCC2)c2ccc(Cl)cc2)cc1OC [I05, dimethomorph] |  | 18 | 
CCCOC/C(=N\c1ccc(Cl)cc1C(F)(F)F)n1ccnc1 [H39, triflumizole] |  | 10 | 
basic copper sulfate [L10] | 18 |  | 
Clc1ccc(CSC(Cn2cncn2)=Nc2ccc(Cl)cc2Cl)cc1 [H21, imibenconazole] |  |  | pest or weed control at 10 ppm [4]: 20%
